Reference: patent publication US4472433A, “Phenoxyphenyl acetic acids and their medicinal use” (Fujisawa Pharmaceutical Co., Ltd., priority 1978, dated 1984)

Experiments:
[1] = system: contraction induced by arachidonic acid; assay: Arachidonic acid-induced contraction of isolated stomach fundus strip; set-up: species or system Sprague-Dawley rats; details: rat stomach fundus strip, arachidonic acid 1.0×10^-5 g/ml as spasmogen, compound added 15 minutes before
Protocol: The stomach was removed from Sprague-Dawley rats, weighing about 180 g., after the animals were fasted overnight. A strip of stomach fundus was suspended under initial tension of 0.6 g. in a 10 ml. organ bath containing Tyrode solution. Arachidonic acid (1.0×10^-5 g/ml.) was employed as the spasmogen. Several doses of the test compound were added to the individual bath fluid 15 minutes before the addition of arachidonic acid. The value of contraction induced by arachidonic acid was measured and plotted dose-activity curve. ED50 value of each test compound was obtained by interpolation from the dose-activity curve.

erythema = assay: UV-induced erythema test (number of rats estimated as effective); type: in vivo, male Hartley rats; details: oral, ten rats per group, half 1 h before and half just after UV radiation, scored 2 h later
Protocol: Ten male 5 week old Hartley rats, each weighing about 350 g. were used per group. The backs of each animal were depilated 24 hours before the test. An adhesive tape with 3 small holes of 9 mm. diameter was placed on the depilated skin and then the animal was exposed to ultra-violet radiation from an ultra-violet lamp (500 W, manufactured by Engelhard Hanovia Inc.) at a distance of 13 cm. for 80 seconds. Two hours later, the degree of erythema was estimated on the basis of the following scores:
1.0: erythema with clear border,
0.5: erythema with unclear border,
The drugs were regarded as being effective when the total of 3 points was below 1.5.
Each dosage of the test compound was administered orally in a suspension form in 20 ml. of 0.5% methyl cellosolve aqueous solution. Half of the test sample was administered one hour before the radiation and the remaining half of the test solution was administered just after radiation.

[2] = system: Brewer's yeast-induced hyperthermia; assay: Brewer's yeast-induced hyperthermia (antipyretic effect); type: in vivo, male SD strain rats; details: oral; for ED50: Rattus norvegicus
Protocol: (§1) Male SD strain rats aged 6 weeks, weighing 164-235 g, were divided into 4 groups i.e. A, B, A' and B' of 10 animals each and were treated as shown below:
(§2) Group A saline 0.5% methylcellulose
(§3) Group B 5% Brewer's yeast
(§4) Group A' saline Test substance
(§5) Group B' 5% Brewer's yeast
(§6) The test substance or 0.5%MC were given orally to rats 4 hr after subcutaneous injection of 5% Brewer's yeast or saline. The rectal temperature was measured with a thermister probe inserted about 4.5-5.0 cm into the rectum 4 hr before, and 1 and 2 hr after the injection of test substance.
The antipyretic effect (%) of test substance on the Brewer's yeast-induced hyperthermia at 1 and 2 hr after the injection of test substance was calculated from the mean rectal temperature (rectal temp.) in each group by the following formula: [formula]
(§7) All experiments were performed at an ambient temperature of 22.0°-22.5° C.
(§8) Test substance, the compound obtained in the Example 5-(2) was dissolved in 0.5%MC at a dose of 10 mg/kg and 100 mg/kg, and also suspended in 0.5%MC at a dose of 320 mg/kg, and Brewer's yeast was suspended in saline.
(§9) Statistics: Calculation of ED50 value according to the Litchfield-Wilcoxon's method was performed with a computer program. Statistic analysis of difference between the control and treated groups according to the Student's t-test or Cochran-Cox test was performed with a computer program.

writhing syndrome = assay: Acetic acid-induced writhing syndrome; type: in vivo, male ddy strain mice; details: oral
Protocol: Male ddy strain mice, weighing 24.0-32.0 g, were used. Each dose group consisted of 10 animals. Writhing syndrome was produced by an intraperitoneal injection of 20 ml/kg of 0.6% acetic acid. […] The drug were given orally 60 minutes before acetic acid. The frequency of writhing syndrome for 10 minutes in the treated animals was compared with that in the control. Control animals received the vehicle.
The test substances, the compound obtained in the Example 5-(2) was suspended in 0.5% methylcellulose.
ED50 value was calculated according to the Litchfield-Wilcoxon's method with a computer program.

[3] = Rectal temperature in saline-treated rats; type: in vivo, male SD strain rats
Protocol: as §1, §2, §3, §4, §5, §6, §7, §8, §9

| SMILES | ED50 [1] | Number of rats estimated as effective (erythema; 2 mg/kg) | Number of rats estimated as effective (erythema; 10 mg/kg) | further results |
| --- | --- | --- | --- | --- |
| Nc1c(CC(=O)[O-])cccc1Oc1ccccc1F.[Na+] [Example 2 - (2), sodium 2-[2-amino-3-(2-fluorophenoxy)phenyl]acetate] | 1.6 µg/mL | 9 rats | 10 rats | – |
| Nc1c(CC(=O)[O-])cccc1Oc1cccc(Cl)c1.[Na+] [Example 4 - (2), sodium 2-[2-amino-3-(3-chlorophenoxy)phenyl]acetate] | 1.7 µg/mL | – | – | – |
| Nc1c(CC(=O)[O-])cccc1Oc1ccccc1Cl.[Na+] [Example 5 - (2), sodium 2-[2-amino-3-(2-chlorophenoxy)phenyl]acetate] | 1.3 µg/mL | 8 rats | 10 rats | ED50 ([2]; 1 hr after administration): 37.3 mg/kg; ED50 ([2]; 2 hr after administration): 12.8 mg/kg; antipyretic effect on the Brewer's yeast-induced hyperthermia ([2]; all doses (10, 100, 320 mg/kg), 1 and 2 hr after administration): showed the antipyretic effect on the Brewer's yeast-induced hyperthermia; ED50 (writhing syndrome; Mus musculus, 60 minutes before acetic acid, writhing 3 to 13 minutes after acetic acid, read-out: ED50 value (inhibition of writhing)): 19.6 mg/kg; effect on the writhing syndrome caused by acetic acid (writhing syndrome): dose-related inhibiting effects on the writhing syndrome; rectal temperature change ([3]; 10 mg/kg, 1 hr, slight but significant): produced a rise; rectal temperature change ([3]; 100 mg/kg, 2 hr): significant fall of the rectal temperature; rectal temperature change ([3]; 320 mg/kg, 1 hr, slight but significant): produced a fall of the rectal temperature; rectal temperature change ([3]; 320 mg/kg, 2 hr): significant fall of the rectal temperature |
| Nc1c(CC(=O)[O-])cccc1Oc1cc(Cl)cc(Cl)c1.[Na+] [Example 7 - (2), sodium 2-[2-amino-3-(3,5-dichlorophenoxy)phenyl]acetate] | 0.16 µg/mL | – | – | – |
| Cc1ccccc1Oc1cccc(CC(=O)[O-])c1N.[Na+] [Example 10 - (2), sodium 2-[2-amino-3-(o-tolyloxy)phenyl]acetate] | 2.5 µg/mL | 5 rats | 10 rats | – |
| Nc1c(CC(=O)[O-])cccc1Oc1c(Cl)cccc1Cl.[Na+] [Example 19, sodium 2-[2-amino-3-(2,6-dichlorophenoxy)phenyl]acetate] | 2.4 µg/mL | – | – | – |
